Data from ChEMBL document CHEMBL2021880, “An Invitation to Open Innovation in Malaria Drug Discovery: 47 Quality Starting Points from the TCAMS” (ACS Med Chem Lett, 2011).

Key:
[1] = Clearance in human microsomes at 0.5 uM; assay type: ADME, Microsome
[2] = Clearance in mouse microsomes at 0.5 uM; assay type: ADME, Microsome
Plasmodium falciparum = test: Antimalarial activity against Plasmodium falciparum 3D7 A infected in red blood cells assessed as inhibition of [3H]hypoxanthine incorporation after 24 hrs by scintillation counting; assay type: functional, organism-based
[3] = target: Voltage-gated inwardly rectifying potassium channel KCNH2 (Homo sapiens, UniProt Q12809); test: Displacement of Cy3b-dofetilide from human ERG expressed in CHO cells by fluorescence polarization assay
Voltage-gated inwardly rectifying potassium channel KCNH2, sequence (Q12809 whole entry): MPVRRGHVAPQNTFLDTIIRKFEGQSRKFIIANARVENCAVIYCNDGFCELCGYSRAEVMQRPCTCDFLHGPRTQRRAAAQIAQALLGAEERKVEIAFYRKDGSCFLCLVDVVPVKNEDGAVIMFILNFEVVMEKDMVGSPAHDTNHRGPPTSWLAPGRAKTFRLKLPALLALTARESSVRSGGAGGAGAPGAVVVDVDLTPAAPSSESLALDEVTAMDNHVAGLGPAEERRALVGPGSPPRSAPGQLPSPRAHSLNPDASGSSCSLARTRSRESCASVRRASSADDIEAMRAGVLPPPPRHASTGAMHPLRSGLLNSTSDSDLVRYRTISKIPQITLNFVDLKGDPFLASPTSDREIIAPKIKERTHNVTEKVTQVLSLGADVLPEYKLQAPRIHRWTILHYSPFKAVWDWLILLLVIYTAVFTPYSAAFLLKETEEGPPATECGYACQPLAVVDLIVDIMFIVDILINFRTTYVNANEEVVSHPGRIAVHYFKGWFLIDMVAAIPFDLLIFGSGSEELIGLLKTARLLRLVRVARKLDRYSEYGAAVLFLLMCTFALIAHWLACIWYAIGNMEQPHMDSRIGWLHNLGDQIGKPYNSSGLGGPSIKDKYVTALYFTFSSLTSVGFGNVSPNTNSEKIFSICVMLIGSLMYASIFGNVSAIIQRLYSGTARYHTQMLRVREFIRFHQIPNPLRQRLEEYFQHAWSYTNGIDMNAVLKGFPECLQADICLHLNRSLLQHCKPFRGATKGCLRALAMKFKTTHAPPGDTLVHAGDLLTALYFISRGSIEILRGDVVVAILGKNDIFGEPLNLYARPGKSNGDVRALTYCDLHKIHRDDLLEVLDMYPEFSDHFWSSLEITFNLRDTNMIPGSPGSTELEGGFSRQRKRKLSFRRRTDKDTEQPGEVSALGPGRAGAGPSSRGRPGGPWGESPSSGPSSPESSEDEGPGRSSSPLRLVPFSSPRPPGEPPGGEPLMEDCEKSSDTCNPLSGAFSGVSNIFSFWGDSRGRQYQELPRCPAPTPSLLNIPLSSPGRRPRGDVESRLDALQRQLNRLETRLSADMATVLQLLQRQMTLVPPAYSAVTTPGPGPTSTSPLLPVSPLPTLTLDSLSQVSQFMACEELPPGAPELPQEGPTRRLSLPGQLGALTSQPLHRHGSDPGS

SMILES	CL [1]	CL [2]	IC50 (Plasmodium falciparum)	INH [3]	XC50 (Plasmodium falciparum)
CN(C)CCNC(=O)c1cc2c(-c3ccc(Cl)cc3)nn(C)c2s1	0.3 mL/min/g	4 mL/min/g	950 nM	6.3 µM	–
COc1cc2c(cc1C(F)(F)F)N(C(=O)Nc1cc(OC(F)(F)F)cc(-c3cccnc3)c1)CC2	< 0.3 mL/min/g	< 0.3 mL/min/g	80 nM	> 15 µM	40 nM
Cc1cc(C(=O)NC2CCN(CC3(c4ccc(Cl)cc4)CCC3)CC2)on1	18.8 mL/min/g	5.6 mL/min/g	80 nM	–	90 nM

Continued, in another order:

CL [1]	CL [2]	IC50 (Plasmodium falciparum)	SMILES	INH [3]	XC50 (Plasmodium falciparum)
< 0.3 mL/min/g	< 0.8 mL/min/g	30 nM	O=C(Nc1cc(C(F)(F)F)ccc1-n1cncn1)C1(c2ccccc2)CC1	–	–
12.7 mL/min/g	> 30 mL/min/g	100 nM	CC(C)(C)c1cc(C(=O)N2CCN(c3ncccc3C(F)(F)F)CC2)n(Cc2ccccc2)n1	> 50 µM	–
